Values of other authors, collected in US6124282A (priority 1998, dated 2000).

How the values were obtained:
[1] = system: extensive metabolisers (EMs) and poor metabolisers (PMs); conditions: PMs and EMs pretreated with quinidine; cited from earlier work
[2] = system: extensive metabolizers (EMs); conditions: inhibiting CYP2D6 (EMs converted into PMs); cited from earlier work
[3] = oral; urine; cited from earlier work

For `COc1ccc2c3c1O[C@H]1[C@@H](O)C=C[C@H]4[C@@H](C2)N(C)CC[C@@]341` [codeine], the codeine analgesia [1] is given as “impaired in PMs as well as in EMs”, the codeine consumption [2] is given as “significantly decreases codeine consumption” and the excreted unchanged [3] is given as “About 4%”.
